Source: patent US8183238B2, “Bicyclic and tricyclic compounds as KAT II inhibitors” (priority 2009, dated 2012)
Counter-ions that a name gives are not always drawn. Like-named read-outs stand apart in the source and are kept apart here.

Target: human KAT II (hKAT II) enzyme (Homo sapiens, UniProt Q8N5Z0)
Test: KAT II Inhibition Spectra Assay
Format: biochemical
Description: Formation of kynurenic acid (KYNA) is indirectly assessed by a decrease in light absorbance at 370 nm (OD370) as the L-kynurenine (KYN) substrate is converted by the human KAT II (hKAT II) enzyme into KYNA. An inhibitor would therefore inhibit the decrease in OD370.
The protocol was performed by placing the following reagents into a Costar 384 well black plate (30 μL total assay volume/well): • 10 μL of 3× concentrated compound; • 10 μL of 3× concentrated substrate mix (BGG (Sigma G-5009); 3 mM L-Kynurenine in 150 mM Tris Acetate (Sigma K3750); 3 mM α-ketoglutaric acid in 150 mM Tris Acetate (Sigma K2010); and 210 μM pyridoxal 5-phosphate (PLP) in 150 mM Tris Acetate (Sigma 9255)); and • 10 μL of 3× concentrated enzyme (15 nM enzyme in 150 mM Tris Acetate with 0.3% bovine serum).
Plates were sealed and incubated at 37° C. for 15-20 h before reading OD370 on a SpectraMax Plus plate reader. IC50s were generated by comparing the efficacy of compounds across a concentration range to inhibit a reduction in the OD370 value relative to assay wells with DMSO added in place of concentrated compound.

[1] = Table 6, hKAT II, decrease in OD370, 37° C., 15-20 h, read-out: KATII IC50
[2] = Table 5, hKAT II, decrease in OD370, 37° C., 15-20 h, read-out: KATII IC50

human KAT II (hKAT II) enzyme, sequence (Q8N5Z0 30-425): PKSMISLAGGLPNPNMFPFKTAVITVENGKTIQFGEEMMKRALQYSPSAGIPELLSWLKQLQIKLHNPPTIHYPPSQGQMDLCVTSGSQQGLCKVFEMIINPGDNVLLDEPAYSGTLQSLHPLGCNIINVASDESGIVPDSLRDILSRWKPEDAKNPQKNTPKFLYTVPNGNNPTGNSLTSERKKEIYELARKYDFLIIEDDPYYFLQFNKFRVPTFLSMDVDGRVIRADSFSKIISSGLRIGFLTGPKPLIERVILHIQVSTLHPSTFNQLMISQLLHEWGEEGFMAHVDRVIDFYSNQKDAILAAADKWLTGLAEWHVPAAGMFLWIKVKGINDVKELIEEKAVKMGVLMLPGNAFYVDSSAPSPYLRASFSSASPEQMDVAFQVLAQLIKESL

IC50 [1] | IC50 [2] | Compound | also measured
31.9 nM |  | Cc1ccc(Oc2ccc3c(c2)CC(N)C(=O)N3O)cc1 (centres unmarked) [Example 98] | 
36.4 nM |  | NC1Cc2cc(Oc3cc(F)ccc3F)ccc2N(O)C1=O (centres unmarked) [Example 89] | 
68.5 nM |  | N[C@H]1Cc2cc(Oc3cc(F)ccc3F)ccc2N(O)C1=O [Example 157, (3S)-3-amino-6-(2,5-difluorophenoxy)-1-hydroxy-3,4-dihydroquinolin-2(1H)-one, trifluoroacetate salt] | 
 | 118 nM | NC1Cc2ccc(-c3ccc(F)c(F)c3)cc2N(O)C1=O (centres unmarked) [Example 44, 3-amino-7-(3,4-difluorophenyl)-1-hydroxy-3,4-dihydroquinolin-2(1H)-one, trifluoroacetate salt] | 
31.1 nM |  | COc1cccc(Oc2cnc3c(c2)C[C@H](N)C(=O)N3O)c1 [Example 80] | 
 | 128 nM | NC1Cc2ccc(-c3cccc(C(F)(F)F)c3)cc2N(O)C1=O (centres unmarked) [Example 46, 3-amino-1-hydroxy-7-[3-(trifluoromethyl)phenyl]-3,4-dihydroquinolin-2(1H)-one, trifluoroacetate salt] | 
 | 141 nM | COc1ccc(-c2ccc3c(c2)N(O)C(=O)C(N)C3)cc1C (centres unmarked) [Example 64, 3-amino-1-hydroxy-7-(4-methoxy-3-methylphenyl)-3,4-dihydroquinolin-2(1H)-one, trifluoroacetate salt] | 
17.3 nM |  | COc1cccc(Oc2ccc3c(c2)C[C@H](N)C(=O)N3O)c1 [Example 78] | 
 | 118 nM | Cc1cccc(-c2ccc3c(c2)N(O)C(=O)C(N)C3)c1C (centres unmarked) [Example 47, 3-amino-7-(2,3-dimethylphenyl)-1-hydroxy-3,4-dihydroquinolin-2(1H)-one, trifluoroacetate salt] | 
49.2 nM |  | NC1Cc2cc(Oc3cccc(F)c3)ccc2N(O)C1=O (centres unmarked) [Example 106] | 
 | 156 nM | COc1ccc(F)cc1-c1ccc2c(c1)N(O)C(=O)C(N)C2 (centres unmarked) [Example 59, 3-amino-7-(5-fluoro-2-methoxyphenyl)-1-hydroxy-3,4-dihydroquinolin-2(1H)-one, trifluoroacetate salt] | 
35.6 nM |  | NC1Cc2cc(Oc3cccc(C(F)(F)F)c3)ccc2N(O)C1=O (centres unmarked) [Example 93] | 
30.9 nM |  | COc1cc2c(cc1Cc1cccc(C#N)c1)C[C@H](N)C(=O)N2O [Example 126] | 
 | 48.4 nM | CC(C)Oc1ccc2c(c1)N(O)C(=O)[C@@H](N)C2 [Example 25] | 
128 nM |  | N[C@H]1Cc2cc(Oc3cc(F)cc(C(F)(F)F)c3)ccc2N(O)C1=O [Example 166, (3S)-3-amino-6-[3-fluoro-5-(trifluoromethyl)phenoxy]-1-hydroxy-3,4-dihydroquinolin-2(1H)-one, trifluoroacetate salt] | 
70.1 nM |  | NC1Cc2cc(Oc3ccc(F)cc3)ccc2N(O)C1=O (centres unmarked) [Example 108] | 
 | 235 nM | NC1Cc2ccc(-c3ccccc3Cl)cc2N(O)C1=O (centres unmarked) [Example 45, 3-amino-7-(2-chlorophenyl)-1-hydroxy-3,4-dihydroquinolin-2(1H)-one, trifluoroacetate salt] | 
 | 131 nM | N[C@@H]1Cc2ccc(Br)cc2N(O)C1=O [Example 5, (3R)-3-amino-7-bromo-1-hydroxy-3,4-dihydroquinolin-2(1H)-one] | 
 | 57.3 nM | COc1cccc(-c2ccc3c(c2)N(O)C(=O)C(N)C3)c1 (centres unmarked) [Example 13, 3-amino-1-hydroxy-7-(3-methoxyphenyl)-3,4-dihydroquinolin-2(1H)-one, hydrochloride salt] | 
 | 95.1 nM | Cc1ccc2c(c1)N(O)C(=O)C(N)C2 (centres unmarked) [Example 17] | 
76.1 nM |  | N[C@H]1Cc2cc(-c3c(F)cccc3F)ccc2N(O)C1=O [Example 148, (3S)-3-amino-6-(2,6-difluorophenyl)-1-hydroxy-3,4-dihydroquinolin-2(1H)-one, trifluoroacetate salt] | 
 | 155 nM | NC1Cc2ccc(-c3ccc4c(c3)CCO4)cc2N(O)C1=O (centres unmarked) [Example 65, 3-amino-7-(2,3-dihydro-1-benzofuran-5-yl)-1-hydroxy-3,4-dihydroquinolin-2(1H)-one, trifluoroacetate salt] | 
126 nM |  | N[C@H]1Cc2cc(Oc3ccc(Cl)c(C(F)(F)F)c3)ccc2N(O)C1=O [Example 158, (3S)-3-amino-6-[4-chloro-3-(trifluoromethyl)phenoxy]-1-hydroxy-3,4-dihydroquinolin-2(1H)-one, trifluoroacetate salt] | 
 | 105 nM | COc1ccc(-c2ccc3c(c2)N(O)C(=O)C(N)C3)cc1F (centres unmarked) [Example 49, 3-amino-7-(3-fluoro-4-methoxyphenyl)-1-hydroxy-3,4-dihydroquinolin-2(1H)-one, trifluoroacetate salt] | 

Continued, compound first:

Compound | IC50 [1] | IC50 [2] | also measured
N[C@H]1Cc2cc(-c3ccc4c(c3)CCO4)ccc2N(O)C1=O [Example 138, (3S)-3-amino-6-(2,3-dihydro-1-benzofuran-5-yl)-1-hydroxy-3,4-dihydroquinolin-2(1H)-one, trifluoroacetate salt] | 156 nM |  | 
N[C@H]1Cc2cc(Cl)cc(F)c2N(O)C1=O [Example 31] |  | 49.7 nM | 
CCOc1ccccc1-c1ccc2c(c1)C[C@H](N)C(=O)N2O [Example 141, (3S)-3-amino-6-(2-ethoxyphenyl)-1-hydroxy-3,4-dihydroquinolin-2(1H)-one, trifluoroacetate salt] | 283 nM |  | 
N[C@H]1Cc2cccc(OCC(F)(F)F)c2N(O)C1=O [Example 96] | 49.6 nM |  | 
N[C@H]1Cc2cc(Oc3ccccc3)cnc2N(O)C1=O [Example 66, (3S)-3-amino-1-hydroxy-6-phenoxy-3,4-dihydro-1,8-naphthyridin-2(1H)-one] | 23.1 nM |  | 
N[C@H]1Cc2cc(Oc3cccc(OC(F)(F)F)c3)ccc2N(O)C1=O [Example 169, (3S)-3-amino-1-hydroxy-6-[3-(trifluoromethoxy)phenoxy]-3,4-dihydroquinolin-2(1H)-one, trifluoroacetate salt] | 123 nM |  | 
Cc1cccc2c1N(O)C(=O)C(N)C2 (centres unmarked) [Example 19] |  | 3040 nM | 
N[C@H]1Cc2cc(-c3cccc(C(F)(F)F)c3)ccc2N(O)C1=O [Example 144, (3S)-3-amino-1-hydroxy-6-[3-(trifluoromethyl)phenyl]-3,4-dihydroquinolin-2(1H)-one, trifluoroacetate salt] | 145 nM |  | 
COc1ccc(-c2ccc3c(c2)C[C@H](N)C(=O)N3O)cc1C [Example 134, (3S)-3-amino-1-hydroxy-6-(4-methoxy-3-methylphenyl)-3,4-dihydroquinolin-2(1H)-one, trifluoroacetate salt] | 199 nM |  | 
CCc1ccccc1-c1ccc2c(c1)C[C@H](N)C(=O)N2O [Example 149, (3S)-3-amino-6-(2-ethylphenyl)-1-hydroxy-3,4-dihydroquinolin-2(1H)-one, trifluoroacetate salt] | 118 nM |  | 
COc1cccc(-c2ccc3c(c2)C[C@H](N)C(=O)N3O)c1 [Example 155, (3S)-3-amino-1-hydroxy-6-(3-methoxyphenyl)-3,4-dihydroquinolin-2(1H)-one, trifluoroacetate salt] | 136 nM |  | 
N[C@H]1Cc2cc(-c3cccc(F)c3)ccc2N(O)C1=O [Example 139, (3S)-3-amino-6-(3-fluorophenyl)-1-hydroxy-3,4-dihydroquinolin-2(1H)-one, trifluoroacetate salt] | 66.1 nM |  | 
N#Cc1cccc2c1N(O)C(=O)C(N)C2 (centres unmarked) [Example 33] |  | 33 nM | 
CN(C)C(=O)ON1C(=O)[C@@H](N)Cc2ccccc21 [Example 73, (3S)-3-amino-1-[(dimethylcarbamoyl)oxy]-3,4-dihydroquinolin-2(1H)-one, hydrochloride salt] |  |  | IC50: 1090 nM
NC1Cc2cc(Oc3ccncc3)ccc2N(O)C1=O (centres unmarked) [Example 100] | 103 nM |  | 
N[C@H]1Cc2cc(-c3cccc(Cl)c3Cl)ccc2N(O)C1=O [Example 145, (3S)-3-amino-6-(2,3-dichlorophenyl)-1-hydroxy-3,4-dihydroquinolin-2(1H)-one, trifluoroacetate salt] | 179 nM |  | 
N[C@H]1Cc2cccc(F)c2N(O)C1=O [Example 36] |  | 79.3 nM | 
NC1Cc2cc(C3CC3)ccc2N(O)C1=O (centres unmarked) [Example 21] |  | 46.2 nM | 
N[C@H]1Cc2cccc(C(F)F)c2N(O)C1=O [Example 119] | 41.1 nM |  | 
N[C@H]1Cc2cccc(-c3ccccc3)c2N(O)C1=O [Example 97] | 313 nM |  | 
N[C@H]1Cc2cc(Cl)cc(C(F)(F)F)c2N(O)C1=O [Example 35] |  | 49.2 nM | 
COc1cc2c(cc1Cc1ccccc1)C[C@H](N)C(=O)N2O [Example 75, (3S)-3-amino-6-benzyl-1-hydroxy-7-methoxy-3,4-dihydroquinolin-2(1H)-one, hydrochloride salt] | 35.2 nM |  | 
N[C@H]1Cc2cc(-c3ccc(F)cc3)ccc2N(O)C1=O [Example 142, (3S)-3-amino-6-(4-fluorophenyl)-1-hydroxy-3,4-dihydroquinolin-2(1H)-one, trifluoroacetate salt] | 102 nM |  | 
N[C@@H]1Cc2ccccc2N(O)C1=O [Example 14] |  | 270 nM | 
N[C@H]1Cc2c(ccc(C3CC3)c2F)N(O)C1=O [Example 116] | 51.9 nM |  | 
Cc1cc(Cl)cc2c1N(O)C(=O)C(N)C2 (centres unmarked) [Example 8, 3-amino-6-chloro-1-hydroxy-8-methyl-3,4-dihydroquinolin-2(1H)-one] |  | 608 nM | 
